Converted amounts (≈) assume the structure as drawn.
Legend:
[1] = tested on: super sensitive Gram-negative Escherichia coli (E. coli) BAS849; experiment: Antibacterial activity, microbroth dilution MIC, E. coli BAS849; format: cell-based; conditions: Escherichia coli; E. coli BAS849, microbroth dilution; read-out: MIC, BAS849
[2] = tested on: control Gram-negative E. coli 25922 strain; experiment: Antibacterial activity, microbroth dilution MIC, E. coli 25922; format: cell-based, Escherichia coli; conditions: Escherichia coli; E. coli 25922, microbroth dilution; read-out: MIC, 25922
[3] = tested on: Gram-positive Staphylococcus aureus (S. aureus) 29213; experiment: Antibacterial activity, microbroth dilution MIC, S. aureus 29213; format: cell-based; conditions: Staphylococcus aureus; S. aureus 29213, microbroth dilution; read-out: MIC, 29213

Compound	MIC [1]	MIC [2]	MIC [3]
O=C(O)c1cc(C(=O)O)c(=O)[nH]c1-c1ccc(F)cc1 [Cpd 10, 6-(4-fluorophenyl)-2-oxo-1,2-dihydropyridine-3,5-dicarboxylic acid]	12.5 to 150 µg/mL (≈ 45.1 to 541 µM)	12.5 to 150 µg/mL (≈ 45.1 to 541 µM)	12.5 to 150 µg/mL (≈ 45.1 to 541 µM)
CCc1cc(C(=O)O)c(=O)[nH]c1-c1ccc(C#N)cc1 [Cpd 15, 6-(4-cyanophenyl)-5-ethyl-2-oxo-1,2-dihydropyridine-3-carboxylic acid]	12.5 to 150 µg/mL (≈ 46.6 to 559 µM)	12.5 to 150 µg/mL (≈ 46.6 to 559 µM)	12.5 to 150 µg/mL (≈ 46.6 to 559 µM)
CCc1cc(C(=O)O)c(=O)[nH]c1-c1cnc(N(C)C)nc1 [Cpd 19, 6-[2-(dimethylamino)pyrimidin-5-yl]-5-ethyl-2-oxo-1,2-dihydropyridine-3-carboxylic acid]	12.5 to 150 µg/mL (≈ 43.4 to 520 µM)	12.5 to 150 µg/mL (≈ 43.4 to 520 µM)	12.5 to 150 µg/mL (≈ 43.4 to 520 µM)
O=C(O)c1c(O)cc(-c2ccc(N3CCCC3)cc2)[nH]c1=O [Cpd 21, 4-hydroxy-2-oxo-6-[4-(pyrrolidin-1-yl)phenyl]-1,2-dihydropyridine-3-carboxylic acid]	3.5 to 12.5 µg/mL (≈ 11.7 to 41.6 µM)	12.5 to 150 µg/mL (≈ 41.6 to 499 µM)	3.5 to 12.5 µg/mL (≈ 11.7 to 41.6 µM)
CCc1cc(C(=O)O)c(=O)[nH]c1-c1ccc(-c2nnn[nH]2)cc1 [Cpd 23, 5-ethyl-2-oxo-6-[4-(1H-tetrazol-5-yl)phenyl]-1,2-dihydropyridine-3-carboxylic acid]	12.5 to 150 µg/mL (≈ 40.2 to 482 µM)	12.5 to 150 µg/mL (≈ 40.2 to 482 µM)	12.5 to 150 µg/mL (≈ 40.2 to 482 µM)
CCc1cc(C(=O)O)c(=O)[nH]c1-c1ccc(F)cc1 [Cpd 26, 5-ethyl-6-(4-fluorophenyl)-2-oxo-1,2-dihydropyridine-3-carboxylic acid]	12.5 to 150 µg/mL (≈ 47.8 to 574 µM)	12.5 to 150 µg/mL (≈ 47.8 to 574 µM)	12.5 to 150 µg/mL (≈ 47.8 to 574 µM)
CCc1cc(C(=O)O)c(=O)[nH]c1-c1ccc(C)cc1 [Cpd 27, 5-ethyl-6-(4-methylphenyl)-2-oxo-1,2-dihydropyridine-3-carboxylic acid]	< 1 µg/mL	12.5 to 150 µg/mL (≈ 48.6 to 583 µM)	12.5 to 150 µg/mL (≈ 48.6 to 583 µM)
CCc1c(-c2ccc(C)cc2)[nH]c(=O)c(C(=O)O)c1O [Cpd 28, 5-ethyl-4-hydroxy-6-(4-methylphenyl)-2-oxo-1,2-dihydropyridine-3-carboxylic acid]	< 1 µg/mL	12.5 to 150 µg/mL (≈ 45.7 to 549 µM)	3.5 to 12.5 µg/mL (≈ 12.8 to 45.7 µM)
CCc1c(-c2ccccc2N2CCCCC2)[nH]c(=O)c(C(=O)O)c1O [Cpd 29, 5-ethyl-4-hydroxy-2-oxo-6-[2-(piperidin-1-yl)phenyl]-1,2-dihydropyridine-3-carboxylic acid]	1 to 3.5 µg/mL (≈ 2.92 to 10.2 µM)	12.5 to 150 µg/mL (≈ 36.5 to 438 µM)	1 to 3.5 µg/mL (≈ 2.92 to 10.2 µM)
CCc1cc(C(=O)O)c(=O)[nH]c1-c1ccccc1N1CCCCC1 [Cpd 31, 5-ethyl-2-oxo-6-[2-(piperidin-1-yl)phenyl]-1,2-dihydropyridine-3-carboxylic acid]	12.5 to 150 µg/mL (≈ 38.3 to 460 µM)	12.5 to 150 µg/mL (≈ 38.3 to 460 µM)	12.5 to 150 µg/mL (≈ 38.3 to 460 µM)
CCc1c(-c2ccc(OC)cc2C)[nH]c(=O)c(C(=O)O)c1O [Cpd 32, 5-ethyl-4-hydroxy-6-(4-methoxy-2-methylphenyl)-2-oxo-1,2-dihydropyridine-3-carboxylic acid]	3.5 to 12.5 µg/mL (≈ 11.5 to 41.2 µM)	12.5 to 150 µg/mL (≈ 41.2 to 495 µM)	3.5 to 12.5 µg/mL (≈ 11.5 to 41.2 µM)
CCc1cc(C(=O)O)c(=O)[nH]c1-c1ccc(OC)cc1C [Cpd 33, 5-ethyl-6-(4-methoxy-2-methylphenyl)-2-oxo-1,2-dihydropyridine-3-carboxylic acid]	12.5 to 150 µg/mL (≈ 43.5 to 522 µM)	12.5 to 150 µg/mL (≈ 43.5 to 522 µM)	12.5 to 150 µg/mL (≈ 43.5 to 522 µM)
CCc1cc(C(=O)O)c(=O)[nH]c1-c1ccc(OC)cc1OC [Cpd 34, 6-(2,4-dimethoxyphenyl)-5-ethyl-2-oxo-1,2-dihydropyridine-3-carboxylic acid]	12.5 to 150 µg/mL (≈ 41.2 to 495 µM)	12.5 to 150 µg/mL (≈ 41.2 to 495 µM)	12.5 to 150 µg/mL (≈ 41.2 to 495 µM)
CCc1cc(C(=O)O)c(=O)[nH]c1-c1ccc(OC)cc1N1CCCC1 [Cpd 35, 5-ethyl-6-[4-methoxy-2-(pyrrolidin-1-yl)phenyl]-2-oxo-1,2-dihydropyridine-3-carboxylic acid]	12.5 to 150 µg/mL (≈ 36.5 to 438 µM)	12.5 to 150 µg/mL (≈ 36.5 to 438 µM)	12.5 to 150 µg/mL (≈ 36.5 to 438 µM)
CCc1c(-c2ccc(OC)cc2OC)[nH]c(=O)c(C(=O)O)c1O [Cpd 36, 6-(2,4-dimethoxyphenyl)-5-ethyl-4-hydroxy-2-oxo-1,2-dihydropyridine-3-carboxylic acid]	3.5 to 12.5 µg/mL (≈ 11 to 39.1 µM)	12.5 to 150 µg/mL (≈ 39.1 to 470 µM)	12.5 to 150 µg/mL (≈ 39.1 to 470 µM)
CCc1cc(C(=O)O)c(=O)[nH]c1-c1ccc(N2CCCC2)cc1C [Cpd 37, 5-ethyl-6-[2-methyl-4-(pyrrolidin-1-yl)phenyl]-2-oxo-1,2-dihydropyridine-3-carboxylic acid]	12.5 to 150 µg/mL (≈ 38.3 to 460 µM)	12.5 to 150 µg/mL (≈ 38.3 to 460 µM)	12.5 to 150 µg/mL (≈ 38.3 to 460 µM)
CCc1c(-c2ccc(N3CCCC3)cc2C)[nH]c(=O)c(C(=O)O)c1O [Cpd 39, 5-ethyl-4-hydroxy-6-[2-methyl-4-(pyrrolidin-1-yl)phenyl]-2-oxo-1,2-dihydropyridine-3-carboxylic acid]	3.5 to 12.5 µg/mL (≈ 10.2 to 36.5 µM)	12.5 to 150 µg/mL (≈ 36.5 to 438 µM)	1 to 3.5 µg/mL (≈ 2.92 to 10.2 µM)
